Measurements taken from the supplement of paper PMC10307832.

How the values were obtained:
Assay in all cases: relative viability (nuclei count vs DMSO), 5 days (fraction); higher = more cells survive
[1] = compound: CC1=CC=C(C=C1)C(=O)CN2C3=C(CCCC3)SC2=N [Pifithrin_alpha] + CC(=O)c1c(C)c2cnc(Nc3ccc(N4CCNCC4)cn3)nc2n(C2CCCC2)c1=O [Palbociclib] (partner 0.5 µM)
Procedure, shortened: (§1)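 A single step with final 0.05% Triton X-100, 1% formaldehyde and 1 ug/ml Hoechst fixed the cells and stained nuclei 5 days after treatment. Lung cancer cell lines in 1536-well plates had been treated by pin tool the day after seeding with one drug alone or a fixed anchor-drug dose plus five library-drug doses (not always all listed) in √10 steps, and nuclei were counted on 4× images. Relative viability is the ratio of nuclei in treated wells to nuclei in vehicle wells, taken as the median of duplicate plates.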

Bemcentinib + OSI-027 = compound: Nc1nc(Nc2ccc3c(c2)CC[C@@H](N2CCCC2)CC3)nn1-c1cc2c(nn1)-c1ccccc1CCC2 [Bemcentinib] + COc1cccc2cc(-c3nc([C@H]4CC[C@H](C(=O)O)CC4)n4ncnc(N)c34)[nH]c12 [OSI-027] (partner 0.5 µM)
Procedure, shortened: as §1

[2] = compound: CC1=CC=C(C=C1)C(=O)CN2C3=C(CCCC3)SC2=N [Pifithrin_alpha] + CC(C)C[C@H](NC(=O)[C@H](Cc1ccccc1)NC(=O)c1cnccn1)B(O)O [Bortezomib] (partner 0.002 µM)
Procedure, shortened: as §1

Axitinib + Linsitinib = compound: CNC(=O)c1ccccc1Sc1ccc2c(/C=C/c3ccccn3)n[nH]c2c1 [Axitinib] + C[C@]1(O)C[C@@H](c2nc(-c3ccc4ccc(-c5ccccc5)nc4c3)c3c(N)nccn32)C1 [Linsitinib] (partner 1 µM)
Procedure, shortened: as §1

Cell Line	relative viability ([1]; first compound 1 µM)	relative viability ([1]; first compound 3.162 µM)	relative viability ([1]; first compound 10 µM)	relative viability ([1]; first compound 31.62 µM)	relative viability ([1]; first compound 100 µM)	relative viability (Bemcentinib + OSI-027; first compound 0.04 µM)	relative viability (Bemcentinib + OSI-027; first compound 0.1265 µM)	relative viability (Bemcentinib + OSI-027; first compound 0.4 µM)	relative viability (Bemcentinib + OSI-027; first compound 1.265 µM)	relative viability (Bemcentinib + OSI-027; first compound 4 µM)	relative viability ([2]; first compound 1 µM)	relative viability ([2]; first compound 3.162 µM)	relative viability ([2]; first compound 10 µM)	relative viability ([2]; first compound 31.62 µM)	relative viability ([2]; first compound 100 µM)	relative viability (Axitinib + Linsitinib; first compound 0.005 µM)	relative viability (Axitinib + Linsitinib; first compound 0.01581 µM)	relative viability (Axitinib + Linsitinib; first compound 0.05 µM)	relative viability (Axitinib + Linsitinib; first compound 0.1581 µM)	relative viability (Axitinib + Linsitinib; first compound 0.5 µM)
201T	0.349	0.319	0.344	0.286	0.376	0.599	1.02	0.778	0.709	0.801	1.05	1.07	1.16	0.794	0.913	1.08	1	1.02	0.965	0.966
A549																0.606	0.606	0.595	0.529	0.573
A-427	0.5	0.529	0.497	0.447	0.454	0.455	0.511	0.492	0.427	0.472	0.953	0.957	0.916	0.722	0.928	1.14	1.02	1.11	1.16	1.17
ABC-1		0.839	0.831	0.462	0.53	0.435	0.402	0.469	0.683	0.507	0.322	0.351	0.328	0.26	0.298	0.972	0.947	0.745	0.759	1.22
BEN	0.487	0.488	0.456	0.444	0.472	0.292	0.288	0.296	0.345	0.322	0.47	0.884	0.914	0.728	1.04	1.04	1.01	0.689	0.803	0.928
CAL-12T	0.364	0.308	0.436		0.238	0.6	0.912	0.77	0.769	0.755	0.962	1.09	1.02	0.666	0.809	0.873	0.903	0.748	0.911	0.712
COR-L23	0.287	0.26	0.281		0.267	0.665	0.969	0.905	0.788	0.888	1.01	0.928	0.973		0.908	0.899	0.944	1.01	0.968	1.11
COR-L 105	0.382	0.42	0.412	0.357	0.406	0.521	0.642	0.571	0.713	0.726	0.725	0.615	0.856	0.629	0.632	1.04	0.792	0.97	1.21	1.13
Calu-6											1.07	1.04	0.899	0.569	0.881	1.08	0.97	1.06	1.01	1.07
ChaGo-K-1	0.87	0.955	0.901	0.509	0.911	0.515	0.794	0.626	0.614	0.531	0.962	1.21	0.944	0.711	0.986					
EBC-1											0.512	0.411	0.437	0.354	0.287	0.935	0.874	0.884	0.904	1.1
EKVX	0.387	0.33	0.321	0.257	0.276	0.57	0.669	0.753	0.793	0.824	1.07	0.94	0.768	0.607	0.648	1.04	0.849	0.946	0.997	1.08
EMC-BAC-2	0.493	0.542	0.489	0.422	0.506	0.372	0.369	0.427	0.37	0.388	1.07	1.09	0.99	0.8	1.15	0.874	0.781	0.813	0.782	0.837
EPLC-272H		0.322	0.334	0.315	0.351	0.342	0.266	0.318	0.244	0.361		0.944	0.895	0.627	1.11	1.33	1.1	1.32	1.12	1.07
H3255	0.292	0.304	0.298	0.296	0.304	0.597	0.66	0.558	0.66	0.666	0.584	0.76	0.711	0.416	0.421	1.08	0.797	0.83	0.917	1.03
HARA	0.219	0.266	0.26	0.265	0.226	0.479	0.758	0.589	0.453	0.469	1.25	1.13	1.2	0.878	1.26	1.06	0.972	1.09	0.914	1.05
HCC-15	0.514	0.731	0.765	0.516	0.625	0.716	0.794	0.74	0.726	0.815	1.1	1.11	0.919	0.772	1.1	0.959	0.879	0.88	0.838	0.895
HCC-44	0.825	0.922	0.867	0.81	0.812	0.452	0.661	0.446	0.483	0.511	0.916	0.851	0.793	0.68	0.652	0.756	0.699	0.746	0.692	0.733
HCC-78	0.449	0.412	0.454	0.409	0.488	0.343	0.348	0.38		0.371	0.415	0.394	0.472	0.418	0.477	0.602	0.414	0.52	0.526	0.479
HCC-366	0.33	0.289	0.28		0.258	0.803	1.17	0.921	0.875	0.898	1.33	0.706	1.07		1.1	0.673	0.615	0.776	0.662	0.842
HCC-827	0.49	0.444	0.479	0.43	0.471	0.816	0.927	0.862	0.84	0.848	0.961	1.14	0.987	0.903	0.981	0.927	0.907	0.963	0.977	0.999

Cell Line	relative viability ([1]; first compound 1 µM)	relative viability ([1]; first compound 3.162 µM)	relative viability ([1]; first compound 10 µM)	relative viability ([1]; first compound 31.62 µM)	relative viability ([1]; first compound 100 µM)	relative viability (Bemcentinib + OSI-027; first compound 0.04 µM)	relative viability (Bemcentinib + OSI-027; first compound 0.1265 µM)	relative viability (Bemcentinib + OSI-027; first compound 0.4 µM)	relative viability (Bemcentinib + OSI-027; first compound 1.265 µM)	relative viability (Bemcentinib + OSI-027; first compound 4 µM)	relative viability ([2]; first compound 1 µM)	relative viability ([2]; first compound 3.162 µM)	relative viability ([2]; first compound 10 µM)	relative viability ([2]; first compound 31.62 µM)	relative viability ([2]; first compound 100 µM)	relative viability (Axitinib + Linsitinib; first compound 0.005 µM)	relative viability (Axitinib + Linsitinib; first compound 0.01581 µM)	relative viability (Axitinib + Linsitinib; first compound 0.05 µM)	relative viability (Axitinib + Linsitinib; first compound 0.1581 µM)	relative viability (Axitinib + Linsitinib; first compound 0.5 µM)
HOP-62	0.45	0.483	0.396	0.335	0.52	0.958	0.904	0.845	0.853	0.9	0.92	0.983	0.955	0.514	1.14	0.961	0.977	0.777	0.894	1.06
IA-LM											0.984	0.415	0.281	0.33	0.339	0.546	0.437	0.564	0.665	0.542
LC-2-ad	0.514	0.503	0.51	0.375	0.432	0.892	0.906	0.761	0.964	0.927	0.892	1.04	0.976	0.767	0.768	0.843	0.844	0.887	0.833	1.01
LK-2	0.686	0.644	0.687		0.782	0.171	0.229	0.206	0.186	0.19						0.543	0.471		0.439	0.415
NCI-H358	0.134	0.151	0.137	0.115	0.119	0.799	0.952	0.837	0.99	0.939						0.729	0.803	0.852	0.727	0.848
NCI-H522	0.988	0.854	0.834	0.893	0.947	0.714	0.548	0.614	0.656	0.728										
NCI-H596						0.739	0.665	0.707	0.757	0.802	0.969	1.1	1.23	1.03	1.06	1.15	1.1	1.24	1.16	1.03
NCI-H1299											1.08	1.02	1.02	0.896	1.03	0.962	1.03	0.978	1	1.06
NCI-H1395		0.617	0.62		0.603	0.654	0.74	0.616	0.613	0.594						1.2	0.913	1.37	0.97	1.18
NCI-H1563						0.783	0.812	0.819	0.766	0.757	0.732	0.697	0.755	0.733	0.78	1.23	1.11	1.12	0.99	1.22
NCI-H1623						0.401	0.418	0.424	0.45	0.502										
NCI-H1648	0.221	0.313	0.305	0.337	0.296	0.245	0.271	0.275	0.245	0.283										
NCI-H1650	0.285	0.321	0.389	0.307	0.282	0.59	0.913	0.624	0.72	0.724	0.182	0.202	0.18	0.189	0.169					
NCI-H1703											0.416	0.344	0.368	0.288	0.279	0.888	0.461	0.12	0.148	0.164
NCI-H1793	0.278	0.3	0.319	0.348	0.206	0.265	0.305	0.299		0.282						0.85	0.836	0.935	1.01	0.881
NCI-H1944	0.326	0.303	0.277	0.233	0.284	0.43	0.483	0.407	0.413	0.41						1.24	1.16	1.16	1.16	1.24
NCI-H2170	0.369	0.396	0.35	0.312	0.452	0.739	0.743	0.76	0.729	0.807										
NCI-H2342	0.516	0.494	0.493	0.53	0.501	0.618	0.655	0.689	0.56	0.567										
SK-MES-1	0.294	0.286	0.267	0.266	0.267	0.645	0.595	0.666	0.799	0.69						1.12	1.07	1.08	1.14	1.22
SW 900	0.58	0.513	0.453	0.388	0.526	0.446	0.544	0.71	0.473	0.419										
